Assays:
human CB2 receptor = human CB2 receptor (Homo sapiens, UniProt P34972); test: cAMP Hunter functional activity assay at the CB2 receptors; type: cell-based; parameters: host or cells: CHO-K1; settings: 2-AG alone, CHO-K1 cells overexpressing human CB2; read-out: IC50, reduction of NKH-477-induced cAMP levels
Experimental: The cAMP Hunter™ eXpress G protein-coupled receptor (GPCR) assay was performed in Chinese Hamster Ovary (CHO)-Kl cells overexpressing the human CB2 receptor. Gi-coupled cAMP modulation was measured following the manufacturer’s protocol (DiscoverX, Fremont, CA). CHO-K1 cells overexpressing the human CB2 receptor were plated into a 96-well plate (3× 10^4 cells/well) and incubated overnight at 37 °C in 5% CO2 atmosphere. The media were aspirated and replaced with 30 μl of assay buffer. Cells were incubated 30 min at 37 °C with 15 μl of 3× concentration-response solutions of 2-AG (0.01–50 μM), or PEA (10 μM), prepared in presence of cell assay buffer containing a 3× of 25 μM NKH-477 solution (a water-soluble analog of Forskolin) to stimulate adenylate cyclase and enhance basal cAMP levels. We also investigated the effect of PEA on 2-AG receptor activation by co-incubation. Therefore, cells were also incubated 30 min at 37 °C with 2-AG and PEA (10 μM) in the presence of NKH-477 to stimulate adenylate cyclase and enhance cAMP levels. […] Relative luminescence units (RLU) were measured by using a GloMax Multi Detection System (Promega Italia). […] The percentage of response was calculated by using the following formula: % RESPONSE = 100% × (1-(RLU of test compound-RLU of NKH-477 positive control)/(RLU of vehicle-RLU of NKH-477 positive control).

RBL-2H3 cells [1] = test: Histamine release assay (ELISA); type: cell-based, rat
Experimental: (§1) RBL-2H3 cells were plated into 24-well culture dishes at a cell density of 2 × 10^5 cells per well, or into 6-well culture dishes at a cell density of 9 × 10^5 cells per well, for 1 day at 37 °C in 5% CO2 atmosphere. After 1 day, RBL-2H3 cells were stimulated with SP (10 μM) or vehicle (water) and incubated for 15 min at 37 °C in 5% CO2 atmosphere.
SP-stimulated RBL-2H3 cells (2 × 10^5 cells/well) were treated with PEA (10 μM) or vehicle (methanol) for 15 min at 37 °C in 5% CO2 atmosphere. SP-stimulated RBL-2H3 cells were also treated with a CB2 antagonist, AM630 (0.1 μM), in the presence and absence of PEA (10 μM), or JWH133 (0.1 μM) (a CB2 synthetic agonist), and incubated for the indicated time. SP-stimulated RBL-2H3 cells were also treated with 2-AG (0.1 and 1 μM), or co-treated with PEA (0.1 μM) and 2-AG (0.1 μM), and incubated for the indicated time. SP-stimulated RBL-2H3 cells were also co-treated with PEA (10 μM) and OMDM188 (10 μM) (a DAGL inhibitor), and incubated for the indicated time. After 15 min, the supernatants were collected and the amounts of secreted histamine were measured by using a histamine ELISA kit according to the manufacturer’s instructions (Abnova) and by using a reader GENios Pro (Tecan). Data were expressed as nanograms per milliliter of histamine.

RBL-2H3 cells [2] = test: Toluidine blue staining, percentage of degranulation; type: cell-based, rat
Experimental: SP-stimulated RBL-2H3 cells [plated on poly-L-lysine (33 μg/ml) coated slides (Deckglaser, 21 × 26 mm) into 6-well culture dishes at a cell density of 9 × 10^5 cells per well] were treated and incubated as described above for histamine release assay. After 15 min, the cells were fixed with paraformaldehyde at 4% for 20 min and incubated for 3 min with toluidine blue at 0.01% in 3% acetic acid. Subsequently, a 5 min wash in distilled water and dehydration in increasing alcohols (90%, 100%) were performed. Cells were then clarified by treatment with Xylol for 5 min and finally dried slides were mounted with the DPX histogram upright. The cells were observed using a Leica DMI6000 digital microscope, acquired using the Leica DFC 340FX digital camera connected to the microscope and analyzed using the LAS AF 2.2.0 software. Degranulated RBL-2H3 cells were counted and the percentage of degranulation (based on the number of colorable cells) was calculated.

RBL-2H3 cells [3] = test: as above; type: cell-based, rat; settings: compound alone 0.1 μM, in the absence of SP (data not shown)
RBL-2H3 cells [4] = test: LC-APCI-MS measurement of endogenous AEA, 2-AG and PEA levels; type: cell-based, rat; settings: for decrease of endogenous levels of 2-AG: OMDM188 10 μM in the presence of PEA 10 μM
Experimental: RBL-2H3 cells (9 × 10^5 cells/well) were stimulated with SP (10 μM) and treated with PEA (10 μM) in the presence and absence of OMDM188 (10 μM), for 15 min at 37 °C in 5% CO2 atmosphere. After 15 min, cells and supernatants were collected and homogenized in a solution of CHCl3/CH3OH/Tris-HCl 50 mM pH 7.4 (2:1:1, v/v) containing 10 pmol of [^2H]8-AEA, [^2H]5-2-AG and [^2H]4-PEA as internal standards. The lipid-containing organic phase was dried down, weighed and pre-purified by open-bed chromatography on silica gel. Fractions obtained by eluting the column with a solution of CHCl3/CH3OH (90:10 by vol.) were analyzed by Liquid Chromatography-Atmospheric Pressure Chemical Ionization-Mass Spectrometry (LC-APCI-MS) using a Shimadzu (Shimadzu, Kyoto, Japan) HPLC apparatus (LC-10ADVP) coupled to a Shimadzu (LCMS-2020) quadrupole MS via a Shimadzu APCI interface. LC-APCI-MS analyses of 2-AG and PEA were carried out in the selected ion monitoring mode, using m/z values of 356 and 348 (molecular ions + 1 for deuterated and undeuterated AEA), 384.35 and 379.35 (molecular ions + 1 for deuterated and undeuterated 2-AG), and 304 and 300 (molecular ions + 1 for deuterated and undeuterated PEA). AEA, 2-AG and PEA levels were calculated on the basis of their area ratio with the internal deuterated standard signal areas, and their amounts (pmol) were normalized per mg of lipid extract.

RBL-2H3 cells [5] = test: Quantitative real-time PCR of PEA/2-AG receptors and metabolic enzymes; type: cell-based, rat; settings: cells stimulated 15 min with SP 10 μM or PEA 10 μM or both, vs unstimulated
From the text: The mRNA expression of PEA target genes (Cnr1, Cnr2, Trpv1, Ppara, and Gpr55), as well as PEA and 2-AG biosynthetic (N-acyl phosphatidylethanolamine-specific phospholipase D, Napepld, Dagla and Daglb) and catabolic enzyme genes (fatty acid amide hydrolase, Faah; N-acylethanolamine-hydrolyzing acid amidase, Naaa; and monoacylglycerol lipase, Mgl), was studied by comparison of transcriptional expression in unstimulated RBL-2H3 cells (plated on 100 mm diameter Petri dishes) vs. the expression of these targets and enzymes in RBL-2H3 cells treated with PEA (10 μM), or stimulated with SP (10 μM) in the presence and absence of PEA (10 μM), for 15 min at 37 °C in 5% CO2 atmosphere. Total RNA was purified, quantified and reverse transcribed as previously reported. For each target, all mRNA sequences were aligned and common primers were designed (Table 1). Quantitative real-time PCR was performed by an iCycler-iQ5 in a 20 μl reaction mixture using 20 ng of cDNA. Assays were performed in quadruplicate (maximum ΔCt of replicate samples < 0.5). Optimized primers for SYBR-green analysis and optimum annealing temperatures were designed by the Allele-Id software version 7.0 (Biosoft International) and were synthesized (HPLC-purification grade) by MWG-Biotech. […] Results were expressed as fold expression compared with a reference condition (2^^−∆∆ct formula).

RBL-2H3 cells [6] = test: β-Hexosaminidase release assay; type: cell-based, rat; settings: substance alone 10 μM, 15 min, vs vehicle-treated cells
Experimental: as §1
SP-stimulated RBL-2H3 cells (2 × 10^5 cells/well) were treated with PEA (0.1, 0.5, 1, and 10 μM) or vehicle (methanol, max 0.1%) for 15 min at 37 °C in 5% CO2 atmosphere. After 15 min, the supernatants (15 μl) were transferred to 96-well plates and incubated with 60 μl of substrate (1 mM p-nitrophenyl-N-acetyl-β-D-glucosaminide in citrate 0.05 M, pH 4.5) for 1 h at 37 °C. To determine the total amount of released β-hexosaminidase, the cells were lysed with 0.1% Triton X-100 and incubated with substrate using the same procedure as for the determination of the activity in the supernatants. The reaction was stopped by adding 150 μl of 0.1 M sodium bicarbonate buffer (pH 10.0), and the reaction product was monitored by measuring the optical density (OD) at 405 nm by using a reader GENios Pro (Tecan). The results were expressed as % of the total β-hexosaminidase content of the cells determined by cell lysis with 0.1% Triton X-100, and calculated by using the following formula: % degranulation = [ODsupernatant/(ODsupernatant + ODtriton x−100)] × 100.

[7] = SP (10 μM)-stimulated cells, compound 0.1 μM, 15 min, vs SP + vehicle
[8] = SP (10 μM)-stimulated cells, compound 1 μM, 15 min, vs SP + vehicle
[9] = compound alone 0.1 μM, in the absence of SP (data not shown)
[10] = SP-stimulated cells treated with OMDM188 10 μM in the presence of PEA 10 μM, vs SP + vehicle

human CB2 receptor, sequence (P34972 whole entry): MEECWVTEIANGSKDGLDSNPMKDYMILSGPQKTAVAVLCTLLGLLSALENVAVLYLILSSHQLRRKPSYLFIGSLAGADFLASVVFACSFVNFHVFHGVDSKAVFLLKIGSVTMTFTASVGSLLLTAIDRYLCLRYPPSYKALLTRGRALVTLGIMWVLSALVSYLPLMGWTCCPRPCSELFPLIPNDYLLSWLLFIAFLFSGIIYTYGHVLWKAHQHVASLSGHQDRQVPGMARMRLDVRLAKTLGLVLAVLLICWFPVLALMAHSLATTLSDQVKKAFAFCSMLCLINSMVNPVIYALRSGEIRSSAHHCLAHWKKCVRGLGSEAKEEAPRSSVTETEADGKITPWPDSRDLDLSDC

In the case of `CCCCC/C=C\C/C=C\C/C=C\C/C=C\CCCC(=O)OC(CO)CO` [2-AG, 2-arachidonoylglycerol], the IC50 (human CB2 receptor) is reported as 590 ± 160 nM, the histamine release (RBL-2H3 cells [1]; [7]) is reported as “comparable” and the histamine release (RBL-2H3 cells [1]; [8]) is reported as “able to reduce”. The “number of degranulated cells” value (RBL-2H3 cells [2]; [7]) was “comparable” and the degranulation (RBL-2H3 cells [2]; [8]) was “able to reduce”.
`COc1ccc(C(=O)c2c(C)n(CCN3CCOCC3)c3cc(I)ccc23)cc1` [AM630] was tested, and the histamine release (RBL-2H3 cells [1]; [7]) was “comparable”, the histamine release (RBL-2H3 cells [1]; [9]) was “No effect” and the “number of degranulated cells” value (RBL-2H3 cells [2]; [7]) was “comparable”.
`CCCC(C)(C)c1ccc2c(c1)OC(C)(C)[C@@H]1CC=C(C)C[C@@H]21` [JWH133] was tested, and the degranulation (RBL-2H3 cells [3]) was “no effect”, the histamine release (RBL-2H3 cells [1]; [7]) was “inhibited the release of histamine” and the histamine release (RBL-2H3 cells [1]; SP-stimulated cells co-treated with JWH133 0.1 μM and AM630 0.1 μM, vs SP + vehicle) was “comparable”. For the same molecule, the histamine release (RBL-2H3 cells [1]; [9]) was “No effect”, the “number of degranulated cells” value (RBL-2H3 cells [2]; [7]) was “reduced the number of SP-degranulated RBL-2H3 cells” and the “number of degranulated cells” value (RBL-2H3 cells [2]; SP-stimulated cells co-treated with JWH133 0.1 μM and AM630 0.1 μM, vs SP + vehicle or SP + AM630) was “comparable”.
With `CCCCCCCCCCC[C@@H](C[C@@H]1OC(=O)[C@H]1CCCCCC)OC(=O)[C@@H](NC=O)[C@@H](C)CC` [OMDM188] the histamine release (RBL-2H3 cells [1]; [10]) was “comparable”, the “number of degranulated cells” value (RBL-2H3 cells [2]; [10]) was “comparable” and the “decrease of endogenous levels of 2-AG” value (RBL-2H3 cells [4]; SP-stimulated cells, compared to SP + PEA only) was 2.5 fold. The “decrease of endogenous levels of 2-AG” value (RBL-2H3 cells [4]; unstimulated cells, compared to PEA 10 μM alone) was 2.4 fold.
In the case of substance P [SP], the “mRNA expression of Cnr2, Napepld, Naaa, Daglb, Faah and Mgl” value (RBL-2H3 cells [5]) is reported as “no statistically significant change”, the histamine release (RBL-2H3 cells [1]; substance alone 10 μM, 15 min, vs vehicle-treated cells) is reported as “significantly released” and the β-hexosaminidase release (RBL-2H3 cells [6]) is reported as “significantly released”. For the same molecule, the “number of degranulated cells” value (RBL-2H3 cells [2]; substance alone 10 μM, 15 min, vs vehicle) was “increased the number of degranulated RBL-2H3 cells” and the “endogenous levels of AEA, 2-AG, and PEA” value (RBL-2H3 cells [4]; SP 10 μM for 15 min, vs vehicle) was “did not change”.

Reference: paper PMC6933707, “Palmitoylethanolamide counteracts substance P-induced mast cell activation in vitro by stimulating diacylglycerol lipase activity” (Journal of Neuroinflammation, 2019)
